The values that follow come from paper PMC7496931, “Activation of Sirtuin 2 Inhibitors Employing Photoswitchable Geometry and Aqueous Solubility” (Chemmedchem, 2020).

The subject of this experiment is urinary bladder cancer cell line RT‐4. Description: Cell-based activity assay (western blot of acetylation levels). The arrangement: species or system human. Particulars: RT-4 cells, 50 μM, 24 h, compounds irradiated (365 nm) prior to incubation. The method, then: Reductive stability of 15 c, 15 f and 20 a in the presence of the cellular reductant glutathione (5 mM) was confirmed by HPLC analysis (Figure S5, Table S2). For the cell‐based activity assay, we illuminated the compounds solved in DMSO with UV light (365 nm) prior to incubation with the cells. […] As expected, 15 c and 15 f increased the levels of acetylated lysines H3K18 and H3K56, which are both affirmed substrates of Sirt2. In addition, we found H4K8 hyperacetylation even though this site is usually not affected by sirtuin catalysed deacetylation, indicating a further mode of action. […] In Figure 6, we show the relative results, whereby the acetylation product was related to total target protein and to the vehicle control. Again, we found an increase in acetylated histones induced by 15 c and 15 f which proves activity of these two compounds in living cells.
Figure 6 Relative acetylation levels of protein targets after incubation with compounds at 50 μM for 24 h in urinary bladder cancer cell line RT‐4 (mean of n=2). […]
Cell-Based Activity Assay
To qualify inhibitory activity of compounds on sirtuins we used the western blot technique.
Therefore, we used precast “Mini-Protean TGX Stain-Free Gels” and corresponding “Trans-Blot Turbo Transfer Pack Mini” PVDF membranes (Biorad, Germany). For sample preparation, […]
Sirt2 in our cell line stock (Data not shown), obtained from “Deutsche Sammlung von Mikroorganismen und Zellkulturen” (DSMZ), Germany. Cells were grown in RPMI 1640 cell medium supplemented with 10% fetal bovine serum and 1% penicillin/streptomycin purchased from PAN Biotec, Germany and stored in a humidified incubator at 37 °C with 5% CO2 atmosphere. For sample preparation, cells were harvested with Trypsin/EDTA and counted in a Beckman’s Coulter Counter. In six well plates, […] were seeded out in 3 mL medium and let allow to attach for 24 h. Stock solutions of compounds (1000-fold) were prepared with DMSO and illuminated with UV light (365 nm) for 5 min. Then, cells were exposed to compounds at a final concentration of 50 µM and incubated for 24 h. Cells were detached with Trypsin/EDTA and washed with phosphate buffered saline (PBS) by centrifugation at 500 g for 5 min and resuspended in PBS. Cell pellets were lysed with a lysis buffer containing Tris […]
and freshly added 1% protease inhibitor cocktail (Sigma Aldrich, Germany) on ice, followed by sonification for 30 minutes. The protein concentration was determined by the Bradford method against bovine serum albumin (BSA) as standard. Each slot of the precast gel was loaded with 30 µg protein followed by an electrophoretic separation and a transfer onto PVDF membranes.
Blots were blocked with 10% non-fat milk powder in Tris-buffered saline containing 20 mM Tris, 145 mM NaCl and Tween 0.5% (TBST) for 2 h and incubated with primary antibody in 1:1000 dilutions (in TBST and 1% BSA) over night at 4 °C. After washing procedure, blots were incubated with secondary antibody conjugated with horse radish peroxidase (1:5000 in TBST and 1% BSA) for 2 h. All used antibodies were obtained from cell signalling (UK): anti ac.H3K9 […]
anti ac.α-tubulin (#5335), anti α-tubulin (#2125) and anti rabbit-HRP (#7074). Target protein bands were detected with Clarity Western ECL Substrate (Biorad, Germany) and recorded at an Advanced Fluorescence Imager (INTAS, Germany). Band intensity was related to internal standard of the TGX Stain-Free gels as loading control.
In order to verify the conformations of Z-15c and Z-15f obtained from our molecular docking experiments, a two-dimensional dihedral analysis was performed using MOE with 3-(2-phenyldiazenyl)-pyridine as reference compound. Both dihedrals were rotated by 360° in 5° steps. At each step, the potential energy was calculated with AMBER force field parameters and AM1-BCC partial charges applied. The diazenyl double bond of both compounds is nearly […]
(In general: A western blot detects proteins with antibodies after separation by electrophoresis.)

For `CC(C)(C)OC(=O)NCc1ccc(/N=N/c2cncc(C(N)=O)c2)cc1` [15 c], the H4K8 acetylation result is given as “hyperacetylation”, the “acetylation level of α-tubulin” value is recorded as “none of the compounds influenced”, the “expression of total histone H3” value is recorded as “no effect” and the “expression of total α-tubulin protein” value is “no effect”. Also, the “level of acetylated lysine H3K18” value was “increased”, the “level of acetylated lysine H3K56” value was “increased” and the “total H4” value was “slight increase”.
With `CCCCCCCCCC(=O)NCc1ccc(/N=N/c2cncc(C(N)=O)c2)cc1` [15 f], the H4K8 acetylation entry is on record as “hyperacetylation”, the “acetylation level of α-tubulin” value is given as “none of the compounds influenced”, the “expression of total histone H3” value is listed as “no effect” and the “expression of total α-tubulin protein” value is “no effect”. The “level of acetylated lysine H3K18” value is recorded as “increased”, the “level of acetylated lysine H3K56” value is “increased” and the “total H4” value was “slight increase”.
For the compound `NC(=O)c1cncc(OCc2cccc(/N=N/c3ccc(OCc4ccccc4)cc3)c2)c1` [20 a], the “acetylation level of α-tubulin” value is “none of the compounds influenced”, the “activity regarding the examined substrates (acetylation)” value is “did not exert any activity”, the “expression of total histone H3” value is on record as “no effect” and the “expression of total α-tubulin protein” value is recorded as “no effect”. In addition, the “total H4” value was “slight increase”.
